Laboratory results as given in patent US9273115B2, “Method for controlling the biological activity of a protein in a vertebrate cell” (CENTRE NATIONAL DE LA RECHERCHE SCIENTIFIQUE (CNRS), priority 2009, dated 2016).
Positions count from the first letter of the chain named.

Assays:
Cre-ERM^Db [1] = biological target: T1, Cre-ERM^Db (Homo sapiens, UniProt P03372, A350M/G400V/G521S/L346I/M388Q/Y526D); assay: X-Gal staining of skin sections of K14-Cre-ERM^Db/RosaR26R mice (Cre-mediated recombination in keratinocytes); settings: for Cre-mediated recombination in Cre-ERM^Db-expressing keratinocytes of ear skin (distal) / Cre-mediated recombination in Cre-ERM^Db-expressing keratinocytes of tail treated skin: daily tail topical treatment 1 or 0.2 mg for 5 days; for Cre-mediated recombination in keratinocytes expressing Cre-ERM^Db: ear treatment 1 mg/day for 5 days, ear sections at day 12
T1 sequence (P03372 311-547 L346I/A350M/M388Q/G400V/G521S/Y526D limits assumed): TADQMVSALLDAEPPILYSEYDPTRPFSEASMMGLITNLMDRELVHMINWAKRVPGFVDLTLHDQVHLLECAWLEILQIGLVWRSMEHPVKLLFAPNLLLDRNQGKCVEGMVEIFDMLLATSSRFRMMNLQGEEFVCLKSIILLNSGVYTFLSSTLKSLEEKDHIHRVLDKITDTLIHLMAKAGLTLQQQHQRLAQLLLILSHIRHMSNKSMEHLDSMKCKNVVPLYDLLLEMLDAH
Protocol: For topical application, DHB, DHBD, HMB or MB dissolved in ethanol at 100 mg/ml was diluted two times in acetone, and 20 μl (1 mg) was daily applied on one cm^2 ear or tail skin for 5 days. For intraperitoneal and gavage administration, compounds dissolved in ethanol were diluted at 10 mg/ml in sunflower oil, and 100 μl were i.p. injected or orally administered to mice.
β-Galactosidase histochemistry was performed on 10 μm-thick frozen section, stained with X-Gal (5-bromo-4-chloro-3-indolyl β-D-galactoside), as described (Brocard et al., 1997).

Cre-ERM^Da [2] = biological target: T2, Cre-ERM^Da (Homo sapiens, UniProt P03372, A350M/G521S/L346I/M388Q/Y526D); assay: PCR detection of Cre-mediated floxed DNA excision in Cre-ERM^Da/RXRα^+/(LNL) F9 cells; type: cell-based, mouse; parameters: a fusion protein between Cre and the L346I, A350M, M388Q, G521S, Y526D mutant ERα LBD; Cre recombinase (bacteriophage P1); expressed in transfected cells; settings: 3 μM DHB, 3 days
T2 sequence (P03372 311-547 L346I/A350M/M388Q/G521S/Y526D limits assumed): T1 sequence (P03372 311-547 L346I/A350M/M388Q/G400V/G521S/Y526D limits assumed) with V90G
Protocol: (§1) F9^+/(LNL) cells (Clifford et al., 1996; Metzger et al., 1995) were coelectroporated with 5 μg pCre-ER expression vectors and 1 μg pPGK-hyg, that had been digested with AseI and PvuII, respectively. Hygromycin-resistant clones were obtained as described (Metzger et al., 1995). To analyse Cre-mediated DNA excision, such clones were plated in 24-well plates at a density of 6×10^3 cells, and grown in the presence of 100 nM all-trans retinoic acid (RA). […] PCR amplification of a segment of the RXRα WT allele (+) and recombined RXRα (Δ) allele from their genomic DNA was carried out using the primers 5′-[…]-3′ (SEQ ID No. 1) and 5′-[…]-3′ (SEQ ID No. 2) (+, ˜300 bp; Δ, ˜350 bp), as described (Feil et al., 1997).

Cre-ERM^Dc [3] = biological target: T3, Cre-ERM^Dc (Homo sapiens, UniProt P03372, A350M/G442Y/G521S/L346I/L466S/M388Q/Y459N/Y526D); assay: PCR detection of Cre-mediated floxed DNA excision in Cre-ERM^Dc/RXRα^+/(LNL) F9 cells; type: cell-based; parameters: Cre recombinase (bacteriophage P1); expressed in transfected cells; settings: F9 clone; one of 9 active clones
T3 sequence (P03372 311-547 L346I/A350M/M388Q/G442Y/Y459N/L466S/G521S/Y526D limits assumed): T1 sequence (P03372 311-547 L346I/A350M/M388Q/G400V/G521S/Y526D limits assumed) with V90G, G132Y, Y149N, L156S
Protocol: as §1

[4] = Blood hematology and plasma biochemical profile at D19; type: in vivo, mice; parameters: Bilirubin / Uric acid / Iron: unit not given here; settings: for ALAT / ALP / ASAT / Albumin / Bilirubin / Cholesterol / Glucose / HCT, hematocrit / HGB, hemoglobin / Iron / K / MCH, mean corpuscular hemoglobin / MCHC, mean corpuscular hemoglobin concentration / MCV, mean corpuscular volume / Magnesium / Na / Phosphorus / Total protein / Triglycerides / Uric acid: 1 mg daily ip D1 to D5, means +/− SD, n = 3
[5] = Plasma levels after i.p. administration; type: in vivo, mice
Protocol: For intraperitoneal and gavage administration, compounds dissolved in ethanol were diluted at 10 mg/ml in sunflower oil, and 100 μl were i.p. injected or orally administered to mice.

Cre-ERM^Dc [6] = biological target: T3, Cre-ERM^Dc; assay: Immunocytochemistry of Cre-ERM^Dc (translocation from cytoplasm to nucleus); type: cell-based; parameters: Cre recombinase (bacteriophage P1); expressed in transfected cells; host or cells: Cos-1 cells (transient, pCre-ERM^Dc) for A3; settings: data not shown
Protocol: (§2) Cos-1 cells grown on Lab-TekII chamber slides (Nalge Nunc International) were transfected with 0.25 μg pCre-ERM expression vectors with Fugene, according to the manufacturer's instruction and treated with vehicle (ethanol) or 3 μM DHB for 24 hrs.

[7] = Liver histology of treated mice; type: in vivo; settings: DHB-treated mice
Cre-ERM^Db [8] = biological target: T1, Cre-ERM^Db; assay: Immunocytochemistry of pCre-ERM^Db-transfected Cos-1 cells (nuclear translocation); type: cell-based, monkey; parameters: Cre recombinase (bacteriophage P1); expressed in transfected cells; host or cells: Cos-1 cells (transient, pCre-ERM^Db) for A2; settings: 3 μM DHB for 24 hrs
Protocol: as §2

Cre-ERM^Da [9] = biological target: T2, Cre-ERM^Da; assay: Immunocytochemistry of pCre-ERM^Da-transfected Cos-1 cells (nuclear translocation); type: cell-based, African green monkey; parameters: a fusion protein between Cre and the L346I, A350M, M388Q, G521S, Y526D mutant ERα LBD; Cre recombinase (bacteriophage P1); expressed in transfected cells; host or cells: Cos-1 cells (transient, pCre-ERM^Da) for A1; settings: 3 μM DHB for 24 hrs
Protocol: as §2

Cre-ERM^Db [10] = biological target: T1, Cre-ERM^Db
Protocol: as §1

For `CC(C)(C)C(=O)Oc1ccc(C(=O)C(=O)c2ccc(OC(=O)C(C)(C)C)cc2)cc1` [DHBD, 4,4′-dihydroxylbenzyl dipivalate], the “Cre-mediated recombination in Cre-ERM^Db-expressing keratinocytes of ear skin (distal)” value (Cre-ERM^Db [1]) was “induced efficient Cre-mediated recombination” and the “Cre-mediated recombination in Cre-ERM^Db-expressing keratinocytes of tail treated skin” value (Cre-ERM^Db [1]) was “induced efficient Cre-mediated recombination”.
For `O=C(C(=O)c1ccc(O)cc1)c1ccc(O)cc1` [DHB, 4,4′-dihydroxybenzil], the “Cre-ERM^Da recombinase activity” value (Cre-ERM^Da [2]) was “induced Cre-ERM^Da recombinase activity”, the “Cre-ERM^Dc Cre-mediated recombinase activity” value (Cre-ERM^Dc [3]) was “strictly DHB-dependent” and the “blood hematology and plasma biochemical profiles versus vehicle” value ([4]; 1 mg daily ip D1 to D5) was “did not reveal major difference”. For the same molecule, the ALAT ([4]; female mice) was 27.7 +/− 2.9 U/l, the ALP ([4]; female mice) was 137.0 +/− 14.1 U/l and the ASAT ([4]; female mice) was 143.3 +/− 91.3 U/l. For the same molecule, the Albumin ([4]; female mice) was 28.7 ± 0.6 g/L, the Bilirubin ([4]; female mice) was 1.3 +/− 0.4 and the Cholesterol ([4]; female mice) was 1.8 ± 0.1 mmol/L. The Glucose ([4]; female mice) was 18.7 ± 3.5 mmol/L, the “HCT, hematocrit” value ([4]; female mice) was 38.9 +/− 2.3% and the “HGB, hemoglobin” value ([4]; female mice) was 13.3 ± 0.8 g/dL. The Iron ([4]; female mice) was 25.6 +/− 3.9, the K ([4]; female mice) was 5.8 ± 0.5 mmol/L and the “MCH, mean corpuscular hemoglobin” value ([4]; female mice) was 16.1 ± 0.2 pg. The “MCHC, mean corpuscular hemoglobin concentration” value ([4]; female mice) was 34.2 ± 0.2 g/dL, the “MCV, mean corpuscular volume” value ([4]; female mice) was 47.2 ± 0.9 fL and the Magnesium ([4]; female mice) was 1.5 ± 0.1 mmol/L. The Na ([4]; female mice) was 152 ± 1.0 mmol/L, the Phosphorus ([4]; female mice) was 3.2 ± 0.1 mmol/L and the Total protein ([4]; female mice) was 48 ± 2.6 g/L. The Triglycerides ([4]; female mice) was 0.6 ± 0.1 mmol/L, the Uric acid ([4]; female mice) was 193.0 +/− 58.4 and the ALAT ([4]; male mice) was 34.7 +/− 17.5 U/l. The ALP ([4]; male mice) was 114.3 +/− 8.1 U/l, the ASAT ([4]; male mice) was 194 +/− 45.5 U/l and the Albumin ([4]; male mice) was 27.3 ± 3.5 g/L. For the same molecule, the Bilirubin ([4]; male mice) was 2.0 +/− 0.3, the Cholesterol ([4]; male mice) was 2.2 ± 0.2 mmol/L and the Glucose ([4]; male mice) was 21.4 ± 7.2 mmol/L. For the same molecule, the “HCT, hematocrit” value ([4]; male mice) was 40.0 +/− 3.7%, the “HGB, hemoglobin” value ([4]; male mice) was 14.0 ± 1.3 g/dL and the Iron ([4]; male mice) was 24.9 +/− 1.4. The K ([4]; male mice) was 5.9 mmol/L, the “MCH, mean corpuscular hemoglobin” value ([4]; male mice) was 16.0 ± 0.2 pg and the “MCHC, mean corpuscular hemoglobin concentration” value ([4]; male mice) was 34.9 ± 0.1 g/dL. For the same molecule, the “MCV, mean corpuscular volume” value ([4]; male mice) was 45.8 ± 0.5 fL, the Magnesium ([4]; male mice) was 1.2 ± 0.2 mmol/L and the Na ([4]; male mice) was 149.7 ± 6.1 mmol/L. The Phosphorus ([4]; male mice) was 3.6 ± 0.6 mmol/L, the Total protein ([4]; male mice) was 48.3 ± 7.1 g/L and the Triglycerides ([4]; male mice) was 0.8 ± 0.2 mmol/L. The Uric acid ([4]; male mice) was 235.7 +/− 132.5, the “β-galactosidase expression in epidermal keratinocytes” value (shortened to “β-galactosidase expression”) (Cre-ERM^Db [1]; 1 mg topically to one ear D1 to D5, treated ear sampled at D12) was “most, if not all epidermal keratinocytes from the treated ear expressed β-galactosidase” and the “Cre-mediated recombination in Cre-ERM^Db-expressing keratinocytes of ear skin (distal)” value (Cre-ERM^Db [1]) was “induced efficient Cre-mediated recombination”. For the same molecule, the “Cre-mediated recombination in Cre-ERM^Db-expressing keratinocytes of tail treated skin” value (Cre-ERM^Db [1]) was “induced efficient Cre-mediated recombination”, the “Cre-mediated recombination in keratinocytes expressing Cre-ERM^Db” value (Cre-ERM^Db [1]) was “efficiently induced” and the “β-galactosidase expression” value (Cre-ERM^Db [1]; gavage 2 mg/day for 5 days) was “induced”. For the same molecule, the “β-galactosidase expression” value (Cre-ERM^Db [1]; intraperitoneal injection 1 mg/day for 5 days) was “induced”, the in vivo clearance ([5]; 1 mg i.p.) was “high” and the plasma levels ([5]; 1 mg i.p., 22 hours after the two-hour sample) was “undetectable”. For the same molecule, the concentration at 2 h ([5]; mouse, plasma, ip, two hours after 1 mg i.p.) was 550 ng/mL, the “translocation of Cre-ERM^Dc from the cytoplasm to the nucleus” value (Cre-ERM^Dc [6]) was “induced translocation” and the “histological defects in liver” value [7] was “no histological defects”. The “Cre-ERM^Db nuclear translocation” value (Cre-ERM^Db [8]) was “induced its nuclear translocation”, the “Cre-ERM^Da protein nuclear translocation” value (Cre-ERM^Da [9]) was “induced Cre-ERM^Da protein nuclear translocation” and the “Cre-mediated floxed DNA excision (Cre-ERM^Db recombinase activity)” value (Cre-ERM^Db [10]; F9 clone, ligand 3 μM) was “efficiently induced Cre-mediated floxed DNA excision”.
For 4,4′-methoxybenzyl [MB], the “Cre-mediated recombination in keratinocytes expressing Cre-ERM^Db” value (Cre-ERM^Db [1]) was “efficiently induced”.
For `COc1ccc(C(=O)C(=O)c2ccc(O)cc2)cc1` [HMB, 4-hydroxy-4′-methoxybenzyl], the “Cre-mediated recombination in keratinocytes expressing Cre-ERM^Db” value (Cre-ERM^Db [1]) was “Induction of Cre-ERM^Db recombinase activity”.
With 4-hydroxytamoxifen [OHT] the “Cre-ERM^Db recombinase activity” value (Cre-ERM^Db [10]) was “neither E2 nor OHT induced any recombinase activity”.
